Data as given in patent US8063021B2, “Ketolide anti-infective compounds” (Kosan Biosciences Incorporated, priority 2003, dated 2011).

What was measured:
S. pneumoniae ATCC 6301 = assay: microdilution assay MIC, S. pneumoniae ATCC 6301; type: cell-based, Streptococcus pneumoniae; details: S. pneumoniae ATCC 6301, erythromycin sensitive strain; average where multiple assays
Description: (§1) In Table B, in some instances multiple assays were performed for a compound/strain combination, in which case the reported MIC is the average. S. pneumoniae ATCC 6301, ATCC 700671, and ATCC 49619 and S. aureus ATCC 6538p and ATCC 29213 are erythromycin sensitive strains.

[1] = system: S. pneumoniae ATCC 700671; assay: microdilution assay MIC, S. pneumoniae ATCC 700671; type: cell-based, Streptococcus pneumoniae; details: S. pneumoniae ATCC 700671, erythromycin sensitive strain; average where multiple assays
Description: as §1

[2] = system: S. pneumoniae ATCC 700676; assay: microdilution assay MIC, S. pneumoniae ATCC 700676; type: cell-based, Streptococcus pneumoniae; details: S. pneumoniae ATCC 700676, erythromycin A resistant strain; average where multiple assays
Description: as §1

[3] = system: S. pneumoniae ATCC 700677; assay: microdilution assay MIC, S. pneumoniae ATCC 700677; type: cell-based, Streptococcus pneumoniae; details: S. pneumoniae ATCC 700677, erythromycin A resistant strain; average where multiple assays
Description: as §1

[4] = system: S. pneumoniae ATCC 700905; assay: microdilution assay MIC, S. pneumoniae ATCC 700905; type: cell-based, Streptococcus pneumoniae; details: S. pneumoniae ATCC 700905, erythromycin A resistant strain; average where multiple assays
Description: as §1

[5] = system: S. pneumoniae ATCC 700906; assay: microdilution assay MIC, S. pneumoniae ATCC 700906; type: cell-based, Streptococcus pneumoniae; details: S. pneumoniae ATCC 700906, erythromycin A resistant strain; average where multiple assays
Description: (§2) In Table B, in some instances multiple assays were performed for a compound/strain combination, in which case the reported MIC is the average.

S. pneumoniae ATCC 49619 = assay: microdilution assay MIC, S. pneumoniae ATCC 49619; type: cell-based, Streptococcus pneumoniae; details: S. pneumoniae ATCC 49619, erythromycin sensitive strain; average where multiple assays
Description: as §1

H. influenzae ATCC 9006 = assay: microdilution assay MIC, H. influenzae ATCC 9006; type: cell-based, Haemophilus influenzae; details: average where multiple assays
Description: as §1

H. influenzae ATCC 49766 = assay: microdilution assay MIC, H. influenzae ATCC 49766; type: cell-based, Haemophilus influenzae; details: average where multiple assays
Description: as §1

S. aureus ATCC 6538p = assay: microdilution assay MIC, S. aureus ATCC 6538p; type: cell-based, Staphylococcus aureus; details: erythromycin sensitive strain, average where multiple assays
Description: as §1

S. aureus ATCC 14154 = assay: microdilution assay MIC, S. aureus ATCC 14154; type: cell-based, Staphylococcus aureus; details: S. aureus ATCC 14154, erythromycin A resistant strain; average where multiple assays
Description: as §2

S. aureus ATCC 29213 = assay: microdilution assay MIC, S. aureus ATCC 29213; type: cell-based, Staphylococcus aureus; details: S. aureus ATCC 29213, erythromycin sensitive strain; average where multiple assays
Description: as §1

[6] = system: S. epidermidis ATCC 12228; assay: microdilution assay MIC, S. epidermidis ATCC 12228; type: cell-based, Staphylococcus epidermidis; details: average where multiple assays
Description: as §1

E. faecalis ATCC 51575 = assay: microdilution assay MIC, E. faecalis ATCC 51575; type: cell-based, Enterococcus faecalis; details: average where multiple assays
Description: as §2

SMILES	MIC (S. pneumoniae ATCC 6301) [µg/mL]	MIC [1] [µg/mL]	MIC [2] [µg/mL]	MIC [3] [µg/mL]	MIC [4] [µg/mL]	MIC [5] [µg/mL]	MIC (S. pneumoniae ATCC 49619) [µg/mL]	MIC (H. influenzae ATCC 9006) [µg/mL]	MIC (H. influenzae ATCC 49766) [µg/mL]	MIC (S. aureus ATCC 6538p) [µg/mL]	MIC (S. aureus ATCC 14154) [µg/mL]	MIC (S. aureus ATCC 29213) [µg/mL]	MIC [6] [µg/mL]	MIC (E. faecalis ATCC 51575) [µg/mL]
COC1(C)CC(C)C(=O)C(C)C2NC(=O)OC2(C)C(CCNC(=O)OCC2c3ccccc3-c3ccccc32)OC(=O)C(C)C(=O)C(C)C1OC1OC(C)CC(N(C)C)C1O (centres unmarked) [Compound 115]	0.025	0.025	0.025	0.025	0.025	0.025	0.025	0.78	1.56					
COC(=O)NCCC1OC(=O)C(C)C(=O)C(C)C(OC2OC(C)CC(N(C)C)C2O)C(C)(OC)CC(C)C(=O)C(C)C2NC(=O)OC12C (centres unmarked) [Compound 118]	0.025	0.049	0.098	0.39	0.98	>12.5	0.049	6.25	3.12	0.49	0.39			
CCN(C)CCC1OC(=O)C(C)C(=O)C(C)C(OC2OC(C)CC(N(C)C)C2O)C(C)(OC)CC(C)C(=O)C(C)C2NC(=O)OC12C (centres unmarked) [Compound 101]	0.2	0.39	6.25	>12.5	3.12	>12.5	0.78			6.25	6.25	6.25	6.25	6.25
COC1(C)CC(C)C(=O)C(C)C2NC(=O)OC2(C)C(CCN2CCCCC2)OC(=O)C(C)C(=O)C(C)C1OC1OC(C)CC(N(C)C)C1O (centres unmarked) [Compound 102]	0.098	3.12	0.78	>12.5	0.098	>12.5	0.2	3.12	6.25					
COC1(C)CC(C)C(=O)C(C)C2NC(=O)OC2(C)C(CCNC(=O)Oc2ccc3ccccc3c2)OC(=O)C(C)C(=O)C(C)C1OC1OC(C)CC(N(C)C)C1O (centres unmarked) [Compound 113]	0.025	0.025	0.025	0.025	0.025	0.025	0.025	1.56	1.56					
COC1(C)CC(C)C(=O)C(C)C2NC(=O)OC2(C)C(CCNC(=O)Oc2cccc(-c3ccccc3)c2)OC(=O)C(C)C(=O)C(C)C1OC1OC(C)CC(N(C)C)C1O (centres unmarked) [Compound 111]	0.025	0.025	0.025	0.025	0.025	0.025	0.049	1.56	1.56					
COC1(C)CC(C)C(=O)C(C)C2NC(=O)OC2(C)C(CCNC(=O)Oc2cccc(-c3cccnc3)c2)OC(=O)C(C)C(=O)C(C)C1OC1OC(C)CC(N(C)C)C1O (centres unmarked) [Compound 109]	0.025	0.025	0.025	0.025	0.025	0.025	0.025	1.56	1.56					
COC1(C)CC(C)C(=O)C(C)C2NC(=O)OC2(C)C(CCNC(=O)Oc2cccc(-c3ccncc3)c2)OC(=O)C(C)C(=O)C(C)C1OC1OC(C)CC(N(C)C)C1O (centres unmarked) [Compound 110]	0.025	0.025	0.025	0.025	0.025	0.049	0.025	1.56	3.12					
COC1(C)CC(C)C(=O)C(C)C2NC(=O)OC2(C)C(CCNC(=O)Nc2cccc3ccccc23)OC(=O)C(C)C(=O)C(C)C1OC1OC(C)CC(N(C)C)C1O (centres unmarked) [Compound 119]	0.025	0.049	0.049	0.78	0.025	0.098	0.025	6.25	3.12					
COC1(C)CC(C)C(=O)C(C)C2NC(=O)OC2(C)C(CCNC(=O)Oc2ccc(-c3ccccc3)cc2)OC(=O)C(C)C(=O)C(C)C1OC1OC(C)CC(N(C)C)C1O (centres unmarked) [Compound 112]	0.025	0.025	0.025	0.78	0.025	0.049	0.049	3.12	6.25					
COC1(C)CC(C)C(=O)C(C)C2NC(=O)OC2(C)C(CCNC(=O)Oc2cccc3ccccc23)OC(=O)C(C)C(=O)C(C)C1OC1OC(C)CC(N(C)C)C1O (centres unmarked) [Compound 114]	0.025	0.025	0.098	0.049	0.025	6.25	0.049		3.12	0.025	0.025			
COC1(C)CC(C)C(=O)C(C)C2NC(=O)OC2(C)C(CCNC(=O)Oc2ccc(F)cc2)OC(=O)C(C)C(=O)C(C)C1OC1OC(C)CC(N(C)C)C1O (centres unmarked) [Compound 116]	0.025	0.025	0.025	0.39	0.025	0.098	0.049	3.12	6.25					
CC[C@H]1OC(=O)[C@H](C)[C@@H](O[C@H]2C[C@@](C)(OC)[C@@H](O)[C@H](C)O2)[C@H](C)[C@@H](O[C@@H]2O[C@H](C)C[C@H](N(C)C)[C@H]2O)[C@](C)(O)C[C@@H](C)C(=O)[C@H](C)[C@@H](O)[C@]1(C)O [Ery A, erythromycin A, reference compound]	0.025	0.049	6.25	6.25	3.12		0.049	1.56	6.25	0.098		0.20	0.20	
COC1(C)CC(C)C(=O)C(C)C2NC(=O)OC2(C)C(CCNC(=O)OCC(C)C)OC(=O)C(C)C(=O)C(C)C1OC1OC(C)CC(N(C)C)C1O (centres unmarked) [Compound 117]	0.025	0.098	0.025	>12.5	0.025	>12.5	0.025	6.25	6.25					
